Earlier results as cited in US20070077261A1 (priority 2005, published 2007).

Conditions: amount dissolving in 2 ml of glycerin; The Merck Index, 11th Edition

## NC(N)=O [urea]
  solubility of urea in glycerin: 1 gram
